pIC50, pKi: −log10 of the molar value.

One experiment relates to H3K9AC (HT1080 cells). The experiment can be described thus: H3K9AC Sandwich ELISA Assay in HT1080 cells (KAT2A primary cell-based screening assay). On the set-up: species or system Human. An outline of the steps:
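HT1080 fibrosarcoma cells seeded 16 h, then treated 24 h at 37 °C with 10-point 1:3 compound dilutions (top 10 µM final, 0.1% DMSO). Acid lysates neutralized with butyrate/PMSF; H3K9ac measured by total-H3-capture sandwich ELISA with luminescent HRP readout, IC50 by four-parameter fit.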
(In general: An ELISA detects its analyte on a solid surface through an enzyme-linked reagent.)

Another experiment addresses KAT2A (Homo sapiens (Human), UniProt Q92830). The experiment is described as follows: KAT2A acetyltransferase biochemical assay (RapidFire mass spectrometry, AcCoA to CoA). The note with it: read-out: KAT2A Ki at 1 μM AcCoA, 5 μM H3 1-21 peptide, 0.5 nM KAT2A, 90-minute reaction.
A further experiment relates to MM.1S cells. The experiment can be described thus: MM1.S 10 Day Proliferation Assay (CellTiter-Glo). In kind it is cell-based, Human. To be noted: Homo sapiens, MM1.S, 240 h. Here is the method: Human B lymphoblast cell line MM.1S was obtained from American Type Culture Collection (ATCC), Manassas, VA USA, Cat. MM.1S (ATCC® CRL-2974™). Cells were cultured in RPMI (Thermo Fisher Scientific/Gibco Life Technologies Cat. #111875-093) plus 10% (v/v) FBS (Thermo Fisher Scientific/Gibco Life Technologies Cat. #26140-079) and 1% Penicillin-Streptomycin (Thermo Fisher Scientific/Gibco Life Technologies Cat. #15070063) at 37° C. in 5% CO2.
MM1.S cells were trypsinized cell viability count performed, and cells suspended in complete media at 5,556 cells/ml. Cells were then seeded (90 μl/well) into a 96-well round black/clear bottom, ULA (Ultra-Low Attachment surface plate (Corning cat #4520) at a density of 500 cells/well. Cells were then incubated for 16 hours at 37° C. and 5% CO2. Compound dilution plates were prepared in 96-well, clear U-bottom, polypropylene plates (Corning 3365) in 100% DMSO at 10 mM stock concentration in duplicate wells, using a 10-point serial dilution (1:3 dilutions). Compounds were diluted to 1:100 in growth medium. Then 10 μl of diluted compounds were added to each well of the cell plates using a Beckman FX liquid handling system such that the highest compound concentration tested was 10 μM final, with a 0.1% final DMSO concentration in the total volume of 100 μl. Plates were incubated for 10 total days at 37° C. and 5% CO2. Fresh media containing compound was refreshed at 5 days treatment.
Finally, the treatment plates were removed from the incubator and 100 μl of CellTiter-Glo Luminescent reagent was added to each well, and plates were equilibrated in the dark for 30 minutes. Plates were read on the PHERAstar plate reader using the 96-well with Luminescent reading mode. IC50 values were calculated using a four-parameter fit with GraphPad Prism version 9.5.1 or in house modified IDBS ActivityBase data analyzing package.

Setting [1] is: Homo sapiens, HT-1080, H3K9AC sandwich ELISA.

Chain of KAT2A (Q92830 whole entry): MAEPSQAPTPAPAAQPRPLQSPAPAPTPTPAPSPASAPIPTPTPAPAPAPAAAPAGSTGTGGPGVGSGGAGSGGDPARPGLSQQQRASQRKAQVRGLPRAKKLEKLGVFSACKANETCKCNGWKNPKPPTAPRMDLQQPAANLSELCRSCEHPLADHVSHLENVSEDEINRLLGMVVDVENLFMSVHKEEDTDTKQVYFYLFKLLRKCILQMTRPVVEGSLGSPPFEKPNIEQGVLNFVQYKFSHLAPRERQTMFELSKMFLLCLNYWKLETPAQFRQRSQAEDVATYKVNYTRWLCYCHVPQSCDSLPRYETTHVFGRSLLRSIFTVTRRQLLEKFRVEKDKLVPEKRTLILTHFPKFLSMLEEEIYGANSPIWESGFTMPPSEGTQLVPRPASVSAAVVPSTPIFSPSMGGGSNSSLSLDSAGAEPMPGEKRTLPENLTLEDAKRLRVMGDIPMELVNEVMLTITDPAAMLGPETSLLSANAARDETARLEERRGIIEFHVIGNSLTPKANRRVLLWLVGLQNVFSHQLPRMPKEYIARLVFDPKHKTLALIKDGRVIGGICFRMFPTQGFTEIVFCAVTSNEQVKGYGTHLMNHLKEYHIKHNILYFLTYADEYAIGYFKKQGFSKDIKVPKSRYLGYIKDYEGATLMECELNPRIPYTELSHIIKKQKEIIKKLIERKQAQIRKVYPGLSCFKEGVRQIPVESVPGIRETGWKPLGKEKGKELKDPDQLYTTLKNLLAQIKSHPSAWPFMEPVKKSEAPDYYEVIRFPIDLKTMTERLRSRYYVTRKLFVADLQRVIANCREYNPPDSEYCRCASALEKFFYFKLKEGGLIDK

In general, pIC50 refers to the IC50 on a negative log10 scale, so that one unit is a factor of ten. Read a low pIC50 as a large IC50. One may read the pKi as −log10 of the Ki, conventionally taken in molar units. As for `CCc1c(F)cccc1-c1cc(C(C)(C)C(=O)NS(=O)(=O)CC)ccc1O[C@@H]1CC[C@@H](NC(=O)[C@@]2(F)CNC3(CCC3)C2)C1` [Example C17, (7S)-N-[(1R,3R)-3-({5-[1-(ethanesulfonamido)-2-methyl-1-oxopropan-2-yl]-2′-ethyl-3′-fluoro[1,1′-biphenyl]-2-yl}oxy)cyclopentyl]-7-fluoro-5-azaspiro[3.4]octane-7-carboxamide], in the experiment on H3K9AC (HT1080 cells) (setting [1]), the pIC50 was < 6.00. At KAT2A, the pKi was 5.56.
As for `CCc1c(F)cccc1-c1cc(C(C)(C)C(=O)NS(=O)(=O)C(C)C)ccc1O[C@@H]1CC[C@@H](NC(=O)[C@@]2(F)CNCC(C)(C)C2)C1` (single isomer, unassigned) [Example C44], in the experiment on H3K9AC (HT1080 cells) (H3K9AC sandwich ELISA), the pIC50 is < 6.00. The pKi at KAT2A was < 7.00.
Regarding `CC(C)S(=O)(=O)NC(=O)Cc1cccc(O[C@@H]2CC[C@@H](NC(=O)[C@@]3(F)CNC4(CCC4)C3)C2)c1-c1cccc(F)c1C1CCC1` (atropisomer, axis not shown) [Example I18, (7S)-N-[(1R,3R)-3-({(1ψ)-2′-cyclobutyl-3′-fluoro-6-[2-oxo-2-(propane-2-sulfonamido)ethyl][1,1′-biphenyl]-2-yl}oxy)cyclopentyl]-7-fluoro-5-azaspiro[3.4]octane-7-carboxamide], the negative logarithm of the IC50 (pIC50) with H3K9AC (HT1080 cells) (H3K9AC sandwich ELISA) was < 6.00. Moreover, the negative logarithm of the Ki (pKi) at KAT2A was < 7.00.
The compound `CN1CC2(CCCC2)C[C@@H]1C(=O)N[C@@H]1CC[C@@H](Oc2ccc(C(=O)O)cc2-c2ccccc2C2CCC2)C1` (single isomer, unassigned) [Example D9] had a negative-log IC50 (pIC50) in the experiment on H3K9AC (HT1080 cells) (setting [1]) of 7.17. Moreover, the pKi at KAT2A was 8.17.
Regarding `CC(C)(C(=O)NS(C)(=O)=O)c1ccc(O[C@@H]2CC[C@@H](NC(=O)[C@@]3(F)CNC4(CCC4)C3)C2)c(-c2cccc(F)c2C2CC2)c1` (single isomer, unassigned) [Example C13], in the experiment on H3K9AC (HT1080 cells) (setting [1]), the negative logarithm of the IC50 (pIC50) was 6.03. For the same compound, the pKi at KAT2A is 7.63.
`CCS(=O)(=O)NC(=O)C(C)c1ccc(O[C@@H]2CC[C@@H](NC(=O)[C@@]3(F)CNC4(CCC4)C3)C2)c(-c2cccc(F)c2C2CCC2)c1` (single isomer, unassigned) [Example C90] had a pIC50 in the experiment with H3K9AC (HT1080 cells) (setting [1]) of 8.48. Moreover, on KAT2A, the pKi is 10.30.
In the experiment with H3K9AC (HT1080 cells) (setting [1]), `CCS(=O)(=O)NC(=O)Cc1ccc(O[C@@H]2CC[C@@H](NC(=O)[C@@]3(F)CNC4(CCC4)C3)C2)c(-c2cccc(F)c2C2CCC2)c1` (single isomer, unassigned) [Example C32] had a negative logarithm of the IC50 (pIC50) of 7.39. The negative logarithm of the Ki (pKi) on KAT2A was 8.35.
In turn, `CCS(=O)(=O)NC(=O)Cc1ccc(O[C@@H]2CC[C@@H](NC(=O)[C@@]3(F)CNC4(CCCC4)C3)C2)c(-c2cccc(F)c2C2CCC2)c1` (single isomer, unassigned) [Example C70] gave a pIC50 in the experiment on H3K9AC (HT1080 cells) (H3K9AC sandwich ELISA) of 7.13. Further, the pKi on KAT2A was 10.40.
In the experiment on H3K9AC (HT1080 cells) (setting [1]), `C[C@@H](C(=O)NS(C)(=O)=O)c1ccc(OC[C@H]2C[C@H](NC(=O)[C@@H]3CC(C)(C)CN3C)C2)c(-c2cccc(F)c2C2CCC2)c1` (single isomer, unassigned) [Example G4] gave a pIC50 of 7.52. For the same compound, the negative-log Ki (pKi) on KAT2A is 8.89.
Regarding `CCc1ccccc1-c1cc(CC(=O)NS(=O)(=O)C(C)C)ccc1O[C@@H]1CC[C@@H](NC(=O)[C@@]2(F)CNC3(CCC3)C2)C1` [Example C52, (7S)-N-[(1R,3R)-3-({2′-ethyl-5-[2-oxo-2-(propane-2-sulfonamido)ethyl][1,1′-biphenyl]-2-yl}oxy)cyclopentyl]-7-fluoro-5-azaspiro[3.4]octane-7-carboxamide], the negative logarithm of the IC50 (pIC50) with H3K9AC (HT1080 cells) (setting [1]) is 8.07. Also, on KAT2A, the pKi is 9.32.
Take `CN(C)S(=O)(=O)NC(=O)Cc1cccc(O[C@@H]2CC[C@@H](NC(=O)[C@@]3(F)CNC4(CCC4)C3)C2)c1-c1cccc(F)c1C1CCC1` (atropisomer, axis not shown) [Example I15, (7S)-N-[(1R,3R)-3-({(1ψ)-2′-cyclobutyl-6-[2-(dimethylsulfamamido)-2-oxoethyl]-3′-fluoro[1,1′-biphenyl]-2-yl}oxy)cyclopentyl]-7-fluoro-5-azaspiro[3.4]octane-7-carboxamide]: in the experiment on H3K9AC (HT1080 cells) (H3K9AC sandwich ELISA), the pIC50 is < 6.00. Further, the negative logarithm of the Ki (pKi) at KAT2A was < 7.00.
In the experiment with H3K9AC (HT1080 cells) (H3K9AC sandwich ELISA), `CCS(=O)(=O)NC(=O)[C@H](C)c1ccc(O[C@@H]2CC[C@@H](NC(=O)[C@@]3(F)CNC4(CCC4)C3)C2)c(-c2cccc(F)c2C2CCC2)c1` (single isomer, unassigned) [Example C91] gave a pIC50 of 8.27. Moreover, the negative logarithm of the Ki (pKi) at KAT2A was 10.22.
The compound `[2H]C([2H])([2H])N1CC(C)(C)C[C@H]1C(=O)N[C@@H]1CC[C@@H](Oc2ccc(C(C)(C)C(=O)O)cc2-c2cccc(F)c2C2CCC2)C1` [Example D15, 2-(2′-cyclobutyl-6-{[(1R,3R)-3-{[4,4-dimethyl-1-(^2H3)methyl-L-prolyl]amino}cyclopentyl]oxy}-3′-fluoro[1,1′-biphenyl]-3-yl)-2-methylpropanoic acid] showed a pIC50 in the experiment with H3K9AC (HT1080 cells) (setting [1]) of 7.08. Further, the pKi at KAT2A is 8.05.
`CC(C)(C(=O)NS(=O)(=O)N1CC(F)(F)C1)c1ccc(O[C@@H]2CC[C@@H](NC(=O)[C@]3(F)CNC4(CCC4)C3)C2)c(-c2cccc(F)c2C2CCC2)c1` (single isomer, unassigned) [Example B10] showed a pIC50 in the experiment on H3K9AC (HT1080 cells) (setting [1]) of 7.80. Besides, the pKi on KAT2A was 9.82.
With `CCc1c(F)cccc1-c1cc(CC(=O)NS(=O)(=O)C2(C)CC2)ccc1O[C@@H]1CC[C@@H](NC(=O)[C@@]2(F)CNCC(C)(C)C2)C1` (single isomer, unassigned) [Example C56], the negative logarithm of the IC50 (pIC50) with H3K9AC (HT1080 cells) (H3K9AC sandwich ELISA) was < 6.00. The negative logarithm of the Ki (pKi) on KAT2A was < 7.00.
`CN1CC(C)(C)C[C@H]1C(=O)N[C@H]1C[C@H](Oc2ccc(C(=O)O)cc2-c2ccccc2C2CCC2)C[C@H]1O` (single isomer, unassigned) [Example K2, 2′-cyclobutyl-6-({(1ξ,3ξ,4ξ)-3-hydroxy-4-[(1,4,4-trimethyl-L-prolyl)amino]cyclopentyl}oxy)[1,1′-biphenyl]-3-carboxylic acid]: the pIC50 with H3K9AC (HT1080 cells) (setting [1]) was 7.54. Also, the negative logarithm of the Ki (pKi) at KAT2A was 8.92.
In the experiment with H3K9AC (HT1080 cells) (H3K9AC sandwich ELISA), `O=C(O)Cc1ccc(O[C@@H]2CC[C@@H](NC(=O)[C@@]3(F)CNC4(CCCC4)C3)C2)c(-c2cccc(F)c2C2CCC2)c1` (single isomer, unassigned) [Example A26] showed a pIC50 of 7.02. For the same compound, the pKi on KAT2A is 7.54.
On to `CN1C[C@@](F)(C(=O)N[C@@H]2CC[C@@H](Oc3ccc(C(C)(C)C(=O)NS(C)(=O)=O)cc3-c3cccc(F)c3C3CCC3)C2)CC1(C)C` (single isomer, unassigned) [Example B8], for which the pIC50 in the experiment with H3K9AC (HT1080 cells) (setting [1]) is < 6.00. On KAT2A, the negative-log Ki (pKi) is 6.15.
Take `O=C(O)c1ccc(O[C@@H]2CC[C@@H](NC(=O)[C@@]3(F)CNC4(CCCC4)C3)C2)c(-c2cccc(F)c2C2CCC2)c1` (single isomer, unassigned) [Example A35]: the negative-log IC50 (pIC50) with H3K9AC (HT1080 cells) (H3K9AC sandwich ELISA) is < 6.00. Besides, the negative logarithm of the Ki (pKi) on KAT2A was < 7.00.
`CC1(C)CNC[C@](F)(C(=O)N[C@@H]2CC[C@@H](Oc3ccc(C(C)(C)C(=O)O)cc3-c3cccc(F)c3C3CCC3)C2)C1` (single isomer, unassigned) [Example A15]: in the experiment on H3K9AC (HT1080 cells) (H3K9AC sandwich ELISA), the pIC50 was 6.53. Further, the pKi at KAT2A is < 6.00.
On to `CC[C@](C)(C(=O)O)c1ccc(O[C@@H]2CC[C@@H](NC(=O)[C@]3(F)CNC4(CCC4)C3)C2)c(-c2cccc(F)c2C2CCC2)c1` (single isomer, unassigned) [Example A10], for which, in the experiment with H3K9AC (HT1080 cells) (H3K9AC sandwich ELISA), the pIC50 was < 6.00. For the same compound, the negative-log Ki (pKi) at KAT2A is < 6.00.
Compound `CN1CC(C)(C)C[C@H]1C(=O)N[C@@H]1CC[C@@H](Oc2ccc(C(=O)O)cc2-c2ccccc2C2CCC2)C1` [Example D4, 2′-cyclobutyl-6-({(1R,3R)-3-[(1,4,4-trimethyl-L-prolyl)amino]cyclopentyl}oxy)[1,1′-biphenyl]-3-carboxylic acid] had a pIC50 with H3K9AC (HT1080 cells) (setting [1]) of 7.06. The negative-log Ki (pKi) on KAT2A is 7.60.
In the experiment with MM.1S cells, `CC(C)(C(=O)O)c1ccc(O[C@@H]2CC[C@@H](NC(=O)[C@@]3(F)CNC4(CCCC4)C3)C2)c(-c2cccc(F)c2C2CCC2)c1` (single isomer, unassigned) [Example A5] gave a negative logarithm of the IC50 (pIC50) of 5.12. For the same compound, the pKi on KAT2A is 5.74.
Regarding `CN1CC(C)(C)C[C@H]1C(=O)N[C@@H]1CC[C@@H](Oc2cccc(CC(=O)NS(C)(=O)=O)c2-c2ccccc2C2CCC2)C1` (atropisomer, axis not shown) [Example I3, N-[(1R,3R)-3-{[(1ψ)-2′-cyclobutyl-6-{2-[(methanesulfonyl)amino]-2-oxoethyl}[1,1′-biphenyl]-2-yl]oxy}cyclopentyl]-1,4,4-trimethyl-L-prolinamide], in the experiment with H3K9AC (HT1080 cells) (H3K9AC sandwich ELISA), the negative-log IC50 (pIC50) was < 5.18. In addition, on KAT2A, the pKi was 5.84.

These data come from US20250188030A1, “Biphenyl and Phenylpyridine Compounds” (Pfizer Inc., priority 2023, published 2025).
